# Publication PMC8459327, “Identification of molecular glues of the SLP76/14-3-3 protein–protein interaction” (RSC Medicinal Chemistry, 2021)
# Values joined by “and” are separate entries in the source; they are usually repeats but may differ in a detail not shown here. Identical values can stand only once. “Also recorded” adds a separate entry of the source. Like-named read-outs stand apart in the source and are kept apart here.
# T1: 14-3-3γ (Homo sapiens, UniProt P61981)
# T1 sequence (P61981 1-247): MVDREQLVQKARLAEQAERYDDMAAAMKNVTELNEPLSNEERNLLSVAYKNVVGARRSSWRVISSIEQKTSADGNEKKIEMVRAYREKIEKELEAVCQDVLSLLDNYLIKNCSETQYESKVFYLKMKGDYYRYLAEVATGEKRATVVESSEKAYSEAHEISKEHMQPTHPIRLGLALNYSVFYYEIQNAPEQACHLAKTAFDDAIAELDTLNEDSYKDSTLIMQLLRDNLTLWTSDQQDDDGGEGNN
# Tests used:
# [1] = target: T2, 14-3-3γ/SLP76 (Homo sapiens, UniProt P61981+Q13094); assay: Orthogonal SPR assay, compound flowed with SLP76 over immobilised 14-3-3γ; format: binding; conditions: for Stabilisation in SPR (in words): off-rate / mass on chip versus runs without compound; for SPR RU (%) mass increase 14-3-3γ/SLP76: percentage of SLP76 remained on the chip after the dissociation phase (+240 s)
# T2 sequence (Q13094 356-533, one chain of several): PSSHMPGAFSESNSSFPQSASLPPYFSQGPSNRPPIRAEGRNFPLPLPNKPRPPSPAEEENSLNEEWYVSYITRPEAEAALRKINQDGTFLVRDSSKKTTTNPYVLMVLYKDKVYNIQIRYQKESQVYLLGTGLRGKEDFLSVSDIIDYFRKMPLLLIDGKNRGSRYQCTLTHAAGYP
# Procedure: Of the 16 hit compounds 13 were tested in an orthogonal SPR assay in which each compound was flowed with SLP76 over 14-3-3γ immobilised on the chip. Runs at different concentrations of compound were compared to the runs in absence of compound. […] The effect of the compounds on 14-3-3γ/SLP76 was measured by calculating the percentage of SLP76 remained on the chip after the dissociation phase and immediately before: RU (%) = RU 5 s before dissociation/RU +240 s after dissociation. Dose–response curves were extrapolated from those sensorgrams plotting the RU (%) mass increase over the increase in compound concentrations.
# SPR experiments were performed on a Biacore T200 (Cytiva). The Sensor Chip NTA was validated as previously reported by Soini et al.[63] A DMSO tolerance at 2% and 5% was performed in the same way (Fig. S1 ^†).
# For compounds testing, the compounds were preincubated with SLP76, in final DMSO concentration of 5%. The compounds were tested at a single concentration of 100 μM and at multiple concentrations following a 3-fold dilution from a top concentration of 100 μM with SLP76 at the saturation concentration of 250 nM. A second set of experiments were performed at multiple concentrations of compound following a 3-fold dilution from a top concentration of 200 μM with SLP76 around the KD concentration of 40 nM. The SLP76/compound mixtures were flowed over the immobilised 14-3-3γ at 30 μL min^−1 for 180 s before allowing dissociation for 5 minutes. After every cycle, the chip was washed with EDTA and Ni^2+ and 14-3-3γ reinjected for the next cycle. The compound effects were measured by calculating the percentage of SLP76 remained on the chip after the dissociation phase and right before: RU (%) = RU 5 s before dissociation/RU +240 s after dissociation. RU response points relative to +240 s after dissociation were also plotted and an apparent EC50 was estimated. The data were fitted with a “One site – specific” model on GraphPad Prism version 8.1.1 for Windows, GraphPad Software, La Jolla California USA, www.graphpad.com.
# [2] = target: 14-3-3ζ/p27 (Homo sapiens, UniProt P46527+P63104); assay: HTRF dose-response assay on 14-3-3ζ/p27; format: binding; conditions: for EC50: stabilisation, same FRET pair, EC50 estimated from fit, read-out: HTRF EC50 14-3-3ζ/p27
# Chain of 14-3-3ζ/p27 (P63104 whole entry): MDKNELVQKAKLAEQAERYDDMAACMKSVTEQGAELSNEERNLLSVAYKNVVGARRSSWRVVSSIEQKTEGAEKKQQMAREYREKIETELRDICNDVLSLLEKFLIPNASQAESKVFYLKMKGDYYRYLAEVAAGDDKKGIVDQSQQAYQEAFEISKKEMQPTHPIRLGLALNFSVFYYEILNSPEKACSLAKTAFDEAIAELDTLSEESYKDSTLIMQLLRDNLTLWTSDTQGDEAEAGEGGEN
# Chain of 14-3-3ζ/p27 (P46527 whole entry): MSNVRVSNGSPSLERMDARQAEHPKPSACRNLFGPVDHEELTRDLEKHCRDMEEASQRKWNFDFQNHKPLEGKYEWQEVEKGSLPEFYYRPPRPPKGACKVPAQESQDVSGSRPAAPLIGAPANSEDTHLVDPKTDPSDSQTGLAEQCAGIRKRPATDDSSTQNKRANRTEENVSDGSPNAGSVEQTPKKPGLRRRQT
# Procedure: (§1) 384 logistic plates were prefilled with 40 μL of compounds at 10 mM, 100% DMSO in column 3. Columns 1, 2 and 4 to 22 were filled with 20 μL of 100% DMSO with a Multidrop Dispenser (ThermoScientific). 2-Fold dilutions of the compounds were carried over from column 3 to 22, with a CyBio FeliX liquid handler (analytikjena). 2 μL of R18 peptide at 20 μM was added to columns 23 and 24 of the Corning 384-well 3574 final assay plates with a Multidrop Dispenser (ThermoScientific). 40 μL of protein mixture, containing Tb labelled 14-3-3γ at 1 nM and AF647 labelled SLP76 at 600 nM in assay buffer (50 mM Tris pH 7.5, 150 mM NaCl, 5 mM MgCl2, 0.05% v/v Tween-20) were added with a Multidrop Dispenser (ThermoScientific) into the Corning 384-well 3574 final assay plates. 2 μL of compounds along with the DMSO control were then transferred with a CyBio FeliX liquid handler (analytikjena) from the 384 logistic plates to the final Corning 384-well 3574 assay plates. […] The dose–response on the first 64 compounds was performed in singlet from a 500 μM top concentration. The repetition on the best 16 compounds was performed in duplicates from a 250 μM top concentration. A dose–response assay on an unrelated 14-3-3ζ/p27 HTRF protein pair was performed as described above. Incubation, data acquisition and normalisation were performed as described above. For EC50 estimation, the data were fitted with a “log(agonist) vs. response (three parameters)” model on GraphPad Prism version 8.1.1 for Windows, GraphPad Software, La Jolla California USA, www.graphpad.com. In the case of duplicates, each data point is the average of a duplicate measurement, standard deviation is reported as error bars.
# [3] = target: T2, 14-3-3γ/SLP76; assay: HTRF dose-ratio assay (SLP76 titration at fixed compound concentrations); format: binding
# Procedure: Each protein titration was performed in the presence of a fixed concentration of compound. […] Proteins and R18 peptide were diluted from their stock concentration in assay buffer (50 mM Tris pH 7.5, 150 mM NaCl, 5 mM MgCl2, 0.05% v/v Tween-20). Incubation and data acquisition were performed as described above. […] For data analysis the background FRET signal generated by the titration in the presence of R18 10 μM was removed from all values. KD values for each curve were estimated and comparison with the different concentration of compounds were made. The data were fitted with a “One site – specific” model on GraphPad Prism version 8.1.1 for Windows, GraphPad Software, La Jolla California USA, www.graphpad.com. Each data point is the average of a duplicate measurement, standard deviation is reported as error bars.
# [4] = target: T2, 14-3-3γ/SLP76; assay: HTRF dose-response assay on 14-3-3γ/SLP76; format: binding; conditions: stabilisation; 14-3-3γ-Tb 1 nM, SLP76-AF647 600 nM, 5% DMSO; EC50 estimated from fit; read-out: HTRF EC50 14-3-3γ/SLP76
# Procedure: 384-Well logistic plates were prefilled with 2 μL of compounds at 2 mM, 100% DMSO, except for columns 1, 2, 23 and 24. Columns 1, 2 were filled with 2 μL of DMSO while columns 23, 24 were filled with 2 μL of the 14-3-3 inhibitor R18 at 20 μM using a Multidrop Dispenser (ThermoScientific). Next, 40 μL of protein mixture containing Tb-labelled 14-3-3γ at 1 nM and AF647 labelled SLP76 at 600 nM in assay buffer (50 mM Tris pH 7.5, 150 mM NaCl, 5 mM MgCl2, 0.05% v/v Tween-20) were added using a Multidrop Dispenser (ThermoScientific). […] To perform the assay, 30 μL volumes were then transferred using a Biomek FX^P Automated Workstation (Beckman Coulter) into Corning 384-well 3574 assay plates. The plates were incubated at room temperature with gentle shaking for 4 h. Finally, the data were collected on a PHERAstar FSX plate reader (BMG Labtech) with an λex 337 nm, λem 665 nm and 620 nm HTRF filter setting. The data were exported in IDBS ActivityBase (IDBS) where they were normalised setting the R18 negative control as 100% inhibition and the DMSO control as 0%. Negative percentage values were therefore associated with a stabilisation of the 14-3-3γ/SLP76 interaction. The threshold of −20% inhibition (or 20% stabilisation) was chosen to select the hits to follow up. The selected hits were retested on 14-3-3γ/SLP76 and were also tested against an unrelated protein pair (IL-17/receptor) in a similar assay setup. […] All the assays were performed as described above.
# as §1
# [5] = target: T1, 14-3-3γ; assay: SPR binding assay of the SLP76-SH2 construct to 14-3-3γ; conditions: in the presence of 5% DMSO, extrapolated from binding curve
# Source text: Fig. 1 Assay set-up for the 14-3-3γ/SLP76 PPI. a) SPR binding assay of the SLP76-SH2 construct binding to 14-3-3γ in the presence of 5% DMSO. The KD value has been extrapolated from the binding curve reported on the right of the sensorgrams. b) HTRF assay set-up. The two proteins of interest, SLP76 and 14-3-3γ have been labelled with […], to generate a suitable matched pair of donor molecule (Tb) and acceptor molecule (AF647). The donor molecule, Tb labelled 14-3-3, is excited at the proper wavelength of 337 nm. When the acceptor is not in the proximity (no binding) no signal is detected. When SLP76 bound to 14-3-3 brings the acceptor molecule AF647 close to the donor, energy transfer occurs between the fluorophores pair. A radiation with the wavelength of 665 nm is consequently emitted to generate a read-out (665/620 nm). All HTRF protein systems used in this work are reported in the legend.
# SPR experiments were performed on a Biacore T200 (Cytiva). The Sensor Chip NTA was validated as previously reported by Soini et al.[63] A DMSO tolerance at 2% and 5% was performed in the same way (Fig. S1 ^†). […]
# confirming a DMSO tolerance of the 14-3-3γ/SLP76-SH2 system in an SPR context. A KD value calculated by […]
# [6] = target: T1, 14-3-3γ; parameters: method as in Soini et al.; conditions: SPR, in absence of DMSO; ref Soini et al.; read-out: KD of SLP76-SH2 binding to 14-3-3γ; cited from earlier work
Molecule,Stabilisation in SPR (in words) [1],SPR RU (%) mass increase 14-3-3γ/SLP76 [1] [%],Stabilisation of 14-3-3ζ/p27 in HTRF (in words) [2],EC50 [2] [µM],KD improvement in the SLP76 HTRF assay [3],EC50 [4],Selectivity for 14-3-3ζ/p27 over 14-3-3γ/SLP76 ([2]; ratio of HTRF EC50s) [fold],Selectivity between 14-3-3γ/SLP76 and 14-3-3ζ/p27 (in words) ([2]; comparison of HTRF dose-responses),Kd [5] [nM],Kd [6] [nM]
"c1cc(-c2nnc3scnn23)ccn1 [Compound 7, 3-pyridin-4-yl-[1,2,4]triazolo[3,4-b][1,3,4]thiadiazole]",orthogonally confirmed by SPR; also recorded: strong concentration dependence in off-rate,57.7,no measurable modulation,> 250,fourfold,5.3 ± 1.9 µM,–,–,–,–
"CC(C)CNC(=O)c1ccc2c(c1)nc1n2CCN(C(C)C)C1=O [Compound 12, N-(2-methylpropyl)-1-oxo-2-propan-2-yl-3,4-dihydropyrazino[1,2-a]benzimidazole-8-carboxamide]",orthogonally confirmed by SPR,67.4,–,0.43 ± 0.37,–,3.2 µM and 3.8 µM,~9,–,–,–
"COc1ccc(C(=O)N2C[C@@H]3CN(CCO3)C(=O)[C@@H]3C[C@@H](CN3Cc3cccnc3)NC(=O)C[C@@H]3O[C@H](C2)[C@@H](O)[C@H]3O)cc1 [Compound 3, (3S,6S,10S,11R,12S,13R,17R)-11,12-dihydroxy-15-(4-methoxybenzoyl)-4-(pyridin-3-ylmethyl)-18,22-dioxa-1,4,7,15-tetrazatetracyclo[15.3.1.13,6.110,13]tricosane-2,8-dione]",orthogonally confirmed by SPR; also recorded: orthogonally confirmed in the SPR assay,66.9,–,> 250,10 fold,14.4 ± 1.9 µM,–,selective for the 14-3-3γ/SLP76 system,–,–
"SLP76-SH2: 20 KDa phosphorylated SLP76 protein construct (pSer376), binding partner of 14-3-3γ (protein, phospho-Ser376 (in vitro by HPK1); His6-SUMO tag cleaved; AF647 amine-labelled in HTRF; the segment is inferred to span Ser376 and the C-terminal SH2 domain to t) MPGAFSESNSSFPQSASLPPYFSQGPSNRPPIRAEGRNFPLPLPNKPRPPSPAEEENSLNEEWYVSYITRPEAEAALRKINQDGTFLVRDSSKKTTTNPYVLMVLYKDKVYNIQIRYQKESQVYLLGTGLRGKEDFLSVSDIIDYFRKMPLLLIDGKNRGSRYQCTLTHAAGYP",–,–,–,–,–,–,–,–,27.9 ± 1.5,43
